Laboratory results: patent publication US10206900B2, “Treatments for fibrotic diseases” (MOR RESEARCH APPLICATIONS LTD., priority 2013, dated 2019)

What was measured:
[1] = system: RPE cells; assay: Cell size / morphology (rhodamine-phalloidin staining) upon TGF-β1; assay type: cell-based; settings: 5Z-7-oxozeaenol 1 μM or SB431542 10 μM prior to TGF-β1
Method: FIG. 3A: RPE cells were plated on fibronectin-coated glass coverslips, serum-starved for 16 hours, pretreated with 5Z-7-oxozeaenol (1 μM) or SB431542 (10 μM), or DMSO for 1 hour, then treated with or without TGF-β1 for 2 days. Following treatment, the cells were stained with rhodamine-phalloidin (actin fibers-red) and DAPI (blue) and visualized by confocal microscopy. Scale bars: […]. FIG. 3B: Serum-starved RPE cells pretreated with 5Z-7-oxozeaenol (1 μM) or DMSO for 1 hour, and were exposed to TGF-β as in FIG. 3A. Total RNA was extracted at each time point and qPCR was performed. Transcription levels of CTGF were determined after 6 h, 16 h and 24 h. Bars represent the specific mRNA amount relative to GAPDH mRNA in the same samples. All experiments were performed in triplicates. A representative histogram from two independent experiments is shown. FIG. 3C: RPE cells were plated and treated as in FIG. 3A. Following treatment, the cells were immunostained with E-cadherin antibodies (green) and DAPI (blue). Representative photographs of two independent experiments are shown. In addition to the secretion of MMPs and increased migratory capacity, several morphological changes underlie EMT (Lamouille et al., I 2007, 178:437-451). […]

[2] = system: c57Black mice; assay: Dispase-induced PVR in mice (H&E histology); assay type: in vivo; settings: treated 96 hour post-dispase, H&E 96 hours later
Method: 96 hour post-treatment, the mice were further treated with 5Z-7-oxozeaenol left untreated, and 96 hours later, mice were sacrificed, eyes were enucleated and stained with hematoxylin and eosin (H&E). […] As shown in the middle panel, dispase caused PVR, manifested by loss of normal cellular architecture of the retina, presence of numerous inflammatory cells and presence of RPE cells throughout all retinal layers compared to the control (left panel). As shown in the right panel, treatment with 5Z-7-oxozeaenol maintained the normal retinal structure and prevented the development of the fibrotic response. 7-8 week old c57Black mice were treated or left untreated with dispase to generate PVR in the mice. 96 hour post-treatment, the mice were treated with 5Z-7-oxozeaenol or left untreated, and 96 hour later, mice were sacrificed, eye were […] and stained with hematoxylin and eosin (H&E).

[3] = system: RPE cells; assay: In vitro scratch wound healing assay upon TNFα stimulation; assay type: cell-based; settings: 1 μM for 1 hour before 20 ng/ml TNFα, day 1 and 2
Method: FIG. 8A: Cell migration of RPE cells in in vitro scratch wound healing assay. RPE cells were treated with Mitomycin C for 3 hours. After the cells were treated with 1 μM 5Z-7 for 1 hour before adding 20 ng/ml TNFα and wounding on day 0. Photographs were taken at day 1 and 2, respectively, after the wound was made. FIG. 8B: Percentage of the gap size (*, P<0.05, t test); (**, P<0.01, t test). To further support the finding that TAK1 mediated EMT in RPE, we examined the migratory capacity of RPE cells, a well-known marker for EMT (Lee et al., J Cell Biol 2006, 172:973-981). Cell migration was tested by the scratch assay. The assay was performed on RPE cells pretreated or untreated with TAK1 inhibitor prior to stimulation with TGF-β1. […] At 24 hours, in the TGF-β1 treated culture, a major portion of the cells had already migrated into the wounded area, displaying almost complete wound closure at 48 hours.

[4] = system: RPE cells; assay: Collagen lattice contraction upon TNFα stimulation; assay type: cell-based; settings: 1 μM before 50 ng/ml TNFα, 72 hours
Method: FIG. 9: TAK1 regulates RPE cells contraction upon TNFα stimulation. […] RPE cells were seeded in collagen lattices in serum starvation medium. The cells were pretreated with 1 μM 5Z-7 or 1 hour before adding 50 ng/ml TNFα. Lattice were photo-documented after 72 hours and measured using ImajeJ software. The transition of RPE cells to myofibroblasts is characterized, among other aspects, by increased contractile activity (Umazume et al., Invest Ophthalmol Vis Sci 2013, 54:1150-1159; Sakamoto et al., Curr Eye Res 1994, 13:451-459; West-Mays et al., Int J Biochem Cell Biol 2006, 38:1625-1631; Ma et al., Clinical & experimental ophthalmology 2012, 40:e76-86). To examine whether TAK1 is a general regulator of the EMT process affecting cell contractility, floating collagen matrix contraction assay was performed. The test was carried out in full serum with or without TAK1 inhibitor (FIGS. 5A and 5B). While in the control cells significant contraction was observed after 24 hours, reaching 50% of the initial size, TAK1 inhibition impaired the capacity of the cells to contract. The collagen lattice remained nearly 80% from the initial size (FIGS. 5A and B).

[5] = system: Smad2/3; assay: Smad2/3 phosphorylation by immuno-blot in HT29 colon cells; assay type: cell-based; settings: HT29 Human colon cells, TGF-β treatment, versus untreated cells
Method: FIG. 11. Inhibition of TAK1 abolishes the activation of TGF-β cascades in colon cells. TGF-β1 up-regulates-Smad 2/3 and p38 activation via TAK1 activity in colon cells. HT29 Human colon cells were treated with or without 5Z-7-oxozeaenol followed by TGF-β treatment. Smad2/3 and p38 phosphorylation patterns were examined by immuno-blots. HT29 Human colon cells were treated as in the previous examples with or without 5Z-7-oxozeaenol, followed by TGF-β treatment. Inhibition of TAK1 was assayed by observation of Smad2/3 and p38 phosphorylation patterns by immuno-blots.

COc1cc(O)c2c(c1)/C=C/C[C@H](O)[C@H](O)C(=O)/C=C\C[C@H](C)OC2=O [5Z-7-oxozeaenol]
TGF-β1-induced increase in cell size (hypertrophic RPE cells) [1]: minimal number of hypertrophic RPE cells | development of the fibrotic response / retinal structure (PVR) [2]: prevents the development of the fibrotic response | migration rates of RPE cells treated with TNFα [3]: inhibited the migration rates | collagen contraction after EMT stimulation by TNFα [4]: significantly reduced collagen contraction | Smad2/3 phosphorylation [5]: significantly inhibited
